Data: US10653672B2, “Myogenesis promotor, muscle atrophy inhibitor, medical composition and TAZ activator” (National University Corporation Tokyo Medical and Dental …, priority 2014, dated 2020)

System: C2C12 cells
Test: Evaluation of myogenesis of C2C12 cells by fusion index
Assay type: cell-based, mouse
Conditions: differentiation condition 72 hours, DMSO as 1, average of three
Experimental: (1) C2C12 cells were grown to confluence under growth condition, and then in differentiation condition for 72 hours, in a culture medium added with DMSO, IBS008738 (exemplary compound 1) or exemplary compounds 2 to 44, at a concentration of 1 μM, 3 μM or 10 μM, respectively. Thereafter, the degree of myogenesis was evaluated by a fusion index (a value obtained by dividing the number of nuclei detected in multinucleated myosin heavy chain (MHC)-positive cells by the total number of the nuclei). Specifically, exemplary compounds were divided into five groups, and DMSO and IBS008738 were evaluated in each group as controls. The evaluation was conducted three times, and the average value and the standard deviation of the fusion index was relativized with the measured value of DMSO as 1.
C2C12 cells were passaged in a growth medium (DMEM containing 10% FBS) and differentiated in a differentiation medium (DMEM containing 2% horse serum (Invitrogen)).

SMILES | relative fusion index (FI) (Group 1, 1 μM) | relative fusion index (FI) (Group 1, 3 μM) | relative fusion index (FI) (Group 1, 10 μM) | relative fusion index (FI) (Group 2, 1 μM) | relative fusion index (FI) (Group 2, 3 μM) | relative fusion index (FI) (Group 2, 10 μM) | further results
Cc1ccc(-n2cnc(N)c2C(=O)c2ccccc2)cc1 [exemplary compound 2] | 1.62 | 2.26 | 2.41 |  |  |  | 
Cc1ccc(-n2cnc(/N=C/N3CCCCC3)c2C(=O)c2ccccc2)cc1 [exemplary compound 4] | 1.02 | 1.54 | 1.51 |  |  |  | 
CC(=O)Nc1ncn(-c2ccc(C)cc2)c1C(=O)c1ccccc1 [exemplary compound 5] | 0.85 | 1.50 | 1.57 |  |  |  | 
Cc1ccc(-n2cnc(/N=C/c3ccccc3)c2C(=O)c2ccccc2)cc1 [exemplary compound 6] | 0.96 | 1.78 | 1.42 |  |  |  | 
CCOC(=O)c1c(N)ncn1-c1ccc(C)cc1 [exemplary compound 7] | 1.09 | 1.55 | 1.44 |  |  |  | 
CCOC(=O)c1c(/N=C/N(C)C)ncn1-c1ccc(C)cc1 [exemplary compound 8] | 0.93 | 1.53 | 1.05 |  |  |  | 
CCOC(=O)c1c(/N=C/N2CCOCC2)ncn1-c1ccc(C)cc1 [exemplary compound 10] | 0.80 | 1.31 | 0.85 |  |  |  | 
CNc1ncn(-c2ccc(C)cc2)c1C(=O)c1ccccc1 [exemplary compound 12] |  |  |  | 1.24 | 1.43 | 1.36 | 
COc1ccc(-n2cnc(N)c2C(=O)c2ccccc2)cc1 [exemplary compound 13] |  |  |  | 1.22 | 1.32 | 1.53 | 
COc1ccc(-n2cnc(/N=C/N(C)C)c2C(=O)c2ccccc2)cc1 [exemplary compound 14] |  |  |  | 1.18 | 1.63 | 1.72 | 
COc1ccc(-n2cnc(/N=C/N3CCOCC3)c2C(=O)c2ccccc2)cc1 [exemplary compound 15] |  |  |  | 1.20 | 1.58 | 1.58 | 
Cc1ccc(-n2c(C)nc(N)c2C(=O)c2ccccc2)cc1 [exemplary compound 16] |  |  |  | 1.06 | 1.18 | 1.60 | 
Nc1ncn(-c2ccc(Br)cc2)c1C(=O)c1ccccc1 [exemplary compound 17] |  |  |  | 1.51 | 2.14 | 2.07 | 
Cc1ccc(-n2cnc(N(C)C)c2C(=O)c2ccccc2)cc1 [exemplary compound 18] |  |  |  |  |  |  | relative fusion index (FI) (Group 3, 1 μM): 1.34; relative fusion index (FI) (Group 3, 3 μM): 1.52; relative fusion index (FI) (Group 3, 10 μM): 1.85
CN(C)/C=N/c1ncn(-c2ccc(Br)cc2)c1C(=O)c1ccccc1 [exemplary compound 19] |  |  |  |  |  |  | relative fusion index (FI) (Group 3, 1 μM): 1.25; relative fusion index (FI) (Group 3, 3 μM): 1.57; relative fusion index (FI) (Group 3, 10 μM): 1.63
O=C(c1ccccc1)c1c(/N=C/N2CCOCC2)ncn1-c1ccc(Br)cc1 [exemplary compound 20] |  |  |  |  |  |  | relative fusion index (FI) (Group 3, 1 μM): 1.26; relative fusion index (FI) (Group 3, 3 μM): 1.41; relative fusion index (FI) (Group 3, 10 μM): 1.60
CC(=O)c1c(/N=C/N(C)C)ncn1-c1ccc(C)cc1 [exemplary compound 25] |  |  |  |  |  |  | relative fusion index (FI) (Group 3, 1 μM): 0.96; relative fusion index (FI) (Group 3, 3 μM): 1.22; relative fusion index (FI) (Group 3, 10 μM): 1.44
Cc1ccc(-n2cnc(N)c2C#N)cc1 [exemplary compound 26] |  |  |  |  |  |  | relative fusion index (FI) (Group 3, 1 μM): 1.01; relative fusion index (FI) (Group 3, 3 μM): 1.09; relative fusion index (FI) (Group 3, 10 μM): 1.44
CC(C)(C)OC(=O)NCCc1ccc(-n2cnc(N)c2C(=O)c2ccccc2)cc1 [exemplary compound 27] |  |  |  |  |  |  | relative fusion index (FI) (Group 4, 1 μM): 0.97; relative fusion index (FI) (Group 4, 3 μM): 1.67; relative fusion index (FI) (Group 4, 10 μM): 1.98
